Reference: US7759350B2, “Pyrimidine carboxamides” (Orchid Research Laboratories Ltd., priority 2005, dated 2010)

Assays:
IL-6 = test: In vitro measurement of IL-6 in human PBMC; assay type: cell-based; details: Conc. 0.1 μM, LPS
Method in brief: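 Human PBMC (0.5 million/well) preincubated with compound 15 min at 37° C., then stimulated with E. coli LPS (1 μg/ml) for 18 h at 37° C. Cytokine in culture medium quantified by ELISA.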

TNF-α [1] = test: LPS induced sepsis for measurement of TNF-α inhibition in mice; assay type: in vivo; details: 50 mg/kg bw oral; female Swiss albino mice; serum 90 minutes after LPS
Procedure: LPS Induced Sepsis for Measurement of TNF-α Inhibition in Mice
The LPS induced sepsis model in mice was performed as described by Les sekut et al (J Lab Clin Med 1994; 124:813-20). Female Swiss albino mice were selected with their body weights being equivalent within each group. The mice were fasted for 20 hours with free access to water. The mice were dosed orally with the test compound suspended in vehicle containing 0.5% Tween 80 in 0.25% Carboxy-methylcellulose sodium salt. The control mice were administered the vehicle alone. After 30 minutes of oral dosing, the mice were injected with 500 μg of Lipopolysaccharide (Escherichia coli, LPS: B4 from Sigma) in phosphate buffer saline solution into the intraperitoneal cavity of the mice. After 90 minutes of LPS administration, the mice were bled via retro-orbital sinus puncture. Blood samples were stored overnight at 4° C. Serum samples were collected by centrifuging the samples at 4000 rpm for 15 minutes at 4° C. Immediately the serum samples were analysed for TNF-α levels, using commercially available mouse TNF-α ELISA kit (Amersham Biosciences) and assay was performed by the manufacturer instruction.

DU145 = test: Anti-cancer screen (MTT), DU145; assay type: cell-based; details: Homo sapiens, DU-145, 48 hours
[2] = biological target: T1, purified recombinant COX-2 enzyme (Homo sapiens, UniProt P35354); test: COX-2 enzyme based assay; assay type: biochemical; details: Conc. 10 μM
T1 sequence (P35354 18-604): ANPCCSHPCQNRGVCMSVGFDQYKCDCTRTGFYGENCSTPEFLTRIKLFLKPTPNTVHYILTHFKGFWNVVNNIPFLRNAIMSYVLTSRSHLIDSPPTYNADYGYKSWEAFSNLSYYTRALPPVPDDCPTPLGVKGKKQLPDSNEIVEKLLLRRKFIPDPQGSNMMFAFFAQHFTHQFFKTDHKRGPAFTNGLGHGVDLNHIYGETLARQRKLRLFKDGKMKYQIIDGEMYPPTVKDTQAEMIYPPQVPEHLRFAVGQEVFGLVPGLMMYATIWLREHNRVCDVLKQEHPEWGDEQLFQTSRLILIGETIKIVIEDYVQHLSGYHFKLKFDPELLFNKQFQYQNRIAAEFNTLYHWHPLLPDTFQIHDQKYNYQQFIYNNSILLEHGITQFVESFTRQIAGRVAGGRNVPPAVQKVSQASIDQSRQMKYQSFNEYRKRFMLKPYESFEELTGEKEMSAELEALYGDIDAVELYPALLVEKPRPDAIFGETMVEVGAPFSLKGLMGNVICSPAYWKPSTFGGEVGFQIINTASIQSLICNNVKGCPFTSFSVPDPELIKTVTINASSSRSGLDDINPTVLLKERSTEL
Procedure: COX-1 and COX-2 Enzyme Based Assay
COX-2 enzyme based assays were carried out to check the inhibitory potential of test compounds on the production of prostaglandin by purified recombinant COX-1/COX-2 enzyme (Proc. Nat. Acad. Sci. USA, 88, 2692-2696, 1991; Clin. Immunoassay 15, 116-120, 1992) In this assay, the potential of the test compound to inhibit the production of prostaglandin either by COX-1 or COX-2 from arachidonic acid (substrate) was measured. This was an enzyme based in-vitro assay to evaluate selective COX inhibition with good reproducibility.
Arachidonic acid was converted to PGH2 (Intermediate product) by COX1/COX-2 in presence or absence of the test compound. The reaction was carried out at 37° C. and after 2 minutes it was stopped by adding 1M HCl. Intermediate products PGH2 was converted to a stable Prostanoid product PGF2α by SnCl2 reduction. The amount of PGF2α produced in the reaction was inversely proportional to the COX inhibitory potential of the test compound. The prostanoid product was quantified via enzyme immunoassay (EIA) using a broadly specific antibody that binds to all the major forms of Prostaglandin, using Cayman ELISA kit as per the procedure outlined by the manufacturer Cayman Chemicals, Ann Arbor, USA).

TNF-α [3] = test: In vitro measurement of TNF-α in human PBMC; assay type: cell-based; details: at 1 μM, LPS
Procedure: In Vitro Measurement of Tumor Necrosis Factor Alpha (TNF-α)
This assay determines the effect of test compounds on the production of TNF-α in human Peripheral Blood Mononuclear Cells (PBMC). Compounds were tested for their ability to inhibit the activity of TNF-α in human PBMC. PBMC were isolated from blood (from healthy volunteers) using BD Vacutainer CPT™ (Cell preparation tube, BD Bio Science) and suspended in RPMI medium (Physiol. Res. 52; 593-598, 2003). The test compounds were pre-incubated with PBMC (0.5 million/incubation well) for 15 minutes at 37° C. and then stimulated with Lipopolysaccharide (Escherichia coli: B4; 1 μg/ml) for 18 hours at 37° C. in 5% CO2. The levels of TNF-α in the cell culture medium were estimated using enzyme linked Immunosorbent assay performed in a 96 well format as per the procedure of the manufacturer (R&D Systems, Inc. 614 McKinley Place Nebr., Minneapolis, Minn. 55413, USA).

GI50 (DU145): 2750 nM
inhibition at 10 µM [2]: 11.4%
Structure (SMILES): CNc1nc(-c2ccncc2)nc(SC)c1C(=O)Nc1ccc(OC)cc1 [Example 14, N-(4-Methoxyphenyl)-4-(methylamino)-6-(methylthio)-2-pyridin-4-ylpyrimidine-5-carboxamide]
inhibition at 0.1 µM (IL-6): 28.2%
TNF-α Inhibition (%) at 50 mg/kg bw (TNF-α [1]): 18.74%
inhibition at 1 µM (TNF-α [3]): 36.8%
